In patent publication US8268827B2, “Pyridazinone derivatives as PARP inhibitors” (Istituto di Ricerche di Biologia Molecolare P. Angeletti …, priority 2007, dated 2012):
Counter-ions that a name gives are not always drawn.

Columns and labels:
[1] = system: BRCA-1 silenced HeLa cells (HeLa shBRCA1-GFP); test: Proliferation assay in BRCA-1 silenced HeLa cells; format: cell-based; details: Homo sapiens; BRCA1 silenced HeLa cells, 168 hours; read-out: CC50 in the BRCA1 silenced HeLa cells
Outline: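 Antiproliferative effect was read by Celltiter Blue fluorescence after 168 h of compound treatment at 37° C., 5% CO2. Cells were matched HeLa pairs, BRCA1-shRNA (>80% silenced, GFP) versus non-shRNA vector control, in DMEM with 10% FCS.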

PARP-1 = molecular target: T1, PARP-1 (Homo sapiens, UniProt P09874); test: PARP-1 SPA assay; format: biochemical
T1 construct: purchased Trevigen 4668-500-01
T1 sequence (P09874 whole entry): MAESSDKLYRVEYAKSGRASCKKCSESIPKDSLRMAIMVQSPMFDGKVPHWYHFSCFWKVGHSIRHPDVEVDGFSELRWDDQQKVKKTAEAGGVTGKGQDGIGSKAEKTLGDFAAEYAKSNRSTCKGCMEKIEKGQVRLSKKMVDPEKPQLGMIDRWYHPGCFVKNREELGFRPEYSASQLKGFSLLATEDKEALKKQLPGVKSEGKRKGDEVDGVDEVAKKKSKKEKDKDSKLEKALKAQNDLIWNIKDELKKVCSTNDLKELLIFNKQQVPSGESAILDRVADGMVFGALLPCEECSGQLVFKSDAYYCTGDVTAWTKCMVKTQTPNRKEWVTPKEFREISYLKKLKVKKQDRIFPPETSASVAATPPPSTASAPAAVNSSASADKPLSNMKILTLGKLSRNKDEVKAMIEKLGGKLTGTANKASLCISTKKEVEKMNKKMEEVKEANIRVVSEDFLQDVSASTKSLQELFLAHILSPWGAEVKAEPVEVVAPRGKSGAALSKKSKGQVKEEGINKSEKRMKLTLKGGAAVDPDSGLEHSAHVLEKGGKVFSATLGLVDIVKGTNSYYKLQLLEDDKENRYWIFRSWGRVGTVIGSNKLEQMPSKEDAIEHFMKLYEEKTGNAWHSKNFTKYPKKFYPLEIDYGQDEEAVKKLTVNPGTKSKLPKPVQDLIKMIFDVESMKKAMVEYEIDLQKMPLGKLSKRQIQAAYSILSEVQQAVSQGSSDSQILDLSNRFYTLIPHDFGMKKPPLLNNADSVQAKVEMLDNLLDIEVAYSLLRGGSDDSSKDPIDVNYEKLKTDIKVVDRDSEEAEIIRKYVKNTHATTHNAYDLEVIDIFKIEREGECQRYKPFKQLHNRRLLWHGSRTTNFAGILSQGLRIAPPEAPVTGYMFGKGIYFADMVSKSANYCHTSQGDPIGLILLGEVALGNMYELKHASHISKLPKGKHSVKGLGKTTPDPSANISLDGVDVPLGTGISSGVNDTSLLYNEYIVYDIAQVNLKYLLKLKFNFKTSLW
Outline: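 PARP-1 reaction in Tris pH 8 buffer with MgCl2, spermine, KCl, activated calf thymus DNA and a mix of [3H]-NAD, NAD and biotinylated NAD, 2 h at RT. Stopped with EDTA/streptavidin SPA beads and poly(ADP-ribose) incorporation counted by scintillation.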

| IC50 (PARP-1) [nM] | SMILES | CC50 [1] [nM] |
| --- | --- | --- |
| 5 to 25 | Cc1c(Cc2ccc(F)c(C(=O)N3CC(=O)N(C4CCCC4)[C@@H](C)C3)c2)n[nH]c(=O)c1C [Example 114, 6-(3-{[(3S)-4-cyclopentyl-3-methyl-5-oxopiperazin-1-yl]carbonyl}-4-fluorobenzyl)-4,5-dimethylpyridazin-3(2H)-one] | < 50 |
| 5 to 25 | Cc1c(Cc2ccc(F)c(C(=O)N3CC(=O)N(C4CCCC4)[C@H](C)C3)c2)n[nH]c(=O)c1C [Example 115, 6-(3-{[(3R)-4-cyclopentyl-3-methyl-5-oxopiperazin-1-yl]carbonyl}-4-fluorobenzyl)-4,5-dimethylpyridazin-3(2H)-one] | < 5000 |
| 5 to 25 | Cc1c(Cc2ccc(F)c(C(=O)N3CCN(C4CCOCC4)C(=O)C3)c2)n[nH]c(=O)c1C [Example 120, 6-(4-fluoro-3-{[3-oxo-4-(tetrahydro-2H-pyran-4-yl)piperazin-1-yl]carbonyl}benzyl)-4,5-dimethyl-3-oxo-2,3-dihydropyridazin-1-ium trifluoroacetate] | < 5000 |
| 5 to 25 | Cc1c(Cc2ccc(F)c(C(=O)N3CC(=O)N(C4CCCCC4)C(C)C3)c2)n[nH]c(=O)c1C (stereo not shown) [Example 125, 3-{3-[(4-Cyclohexyl-3-methyl-5-oxopiperazin-1-yl)carbonyl]-4-fluorobenzyl}-4,5-dimethyl-6-oxo-1,6-dihydropyridazin-1-ium trifluoroacetate] | < 50 |
| 5 to 25 | CCc1cc(Cc2ccc(F)c(C(=O)N3CCN(C4CCCOC4)C(=O)C3)c2)n[nH]c1=O (stereo not shown) [Example 133, 4-ethyl-6-(4-fluoro-3-{[3-oxo-4-(tetrahydro-2H-pyran-3-yl)piperazin-1-yl]carbonyl}benzyl)-3-oxo-2,3-dihydropyridazin-1-ium trifluoroacetate] | 50 to 500 |
| 5 to 25 | CCc1cc(Cc2ccc(F)c(C(=O)N3CCN(CC(F)(F)F)C(=O)C3)c2)n[nH]c1=O [Example 134, 4-ethyl-6-(4-fluoro-3-{[3-oxo-4-(2,2,2-trifluoroethyl)piperazin-1-yl]carbonyl}benzyl)-3-oxo-2,3-dihydropyridazin-1-ium trifluoroacetate] | < 5000 |
| 5 to 25 | Cc1c(Cc2ccc(F)c(C(=O)N3CC(=O)N4CCCC[C@H]4C3)c2)n[nH]c(=O)c1C(F)(F)F [Example 135, 3-(4-Fluoro-3-{[(9aS)-4-oxooctahydro-2h-pyrido[1,2-a]pyrazin-2-yl]carbonyl}benzyl)-4-methyl-6-oxo-5-(trifluoromethyl)-1,6-dihydropyridazin-1-ium trifluoroacetate] | < 50 |
| < 5 | Cc1c(Cc2ccc(F)c(C(=O)N3CC(=O)N4CCOCC4C3)c2)n[nH]c(=O)c1C(F)(F)F (stereo not shown) [Example 136, 3-{4-Fluoro-3-[(6-oxohexahydropyrazino[2,1-c][1,4]oxazin-8(1H)-yl)carbonyl]benzyl}-4-methyl-6-oxo-5-(trifluoromethyl)-1,6-dihydropyridazin-1-ium trifluoroacetate] | 50 to 500 |
| 5 to 25 | CCN1C(=O)CN(C(=O)c2cc(Cc3n[nH]c(=O)c(C)c3C)ccc2F)CC1C (stereo not shown) [Example 137, 6-{3-[(4-ethyl-3-methyl-5-oxopiperazin-1-yl)carbonyl]-4-fluorobenzyl}-4,5-dimethyl-3-oxo-2,3-dihydropyridazin-1-ium trifluoroacetate] | 50 to 500 |
| 5 to 25 | COc1ccc(CN2C(=O)CN(C(=O)c3cc(Cc4n[nH]c(=O)c(C)c4C)ccc3F)CC2C)cc1 (stereo not shown) [Example 138, 6-(4-fluoro-3-{[4-(4-methoxybenzyl)-3-methyl-5-oxopiperazin-1-yl]carbonyl}benzyl)-4,5-dimethyl-3-oxo-2,3-dihydropyridazin-1-ium trifluoroacetate] | 50 to 500 |
| 5 to 25 | Cc1c(Cc2ccc(F)c(C(=O)N3CC(=O)N(CC(F)(F)F)C(C)C3)c2)n[nH]c(=O)c1C (stereo not shown) [Example 139, 6-(4-fluoro-3-{[3-methyl-5-oxo-4-(2,2,2-trifluoroethyl)piperazin-1-yl]carbonyl}benzyl)-4,5-dimethyl-3-oxo-2,3-dihydropyridazin-1-ium trifluoroacetate] | 50 to 500 |
| 5 to 25 | Cc1c(Cc2ccc(F)c(C(=O)N3CC(=O)N(C4C[C@H]5CC[C@@H]4C5)C(C)C3)c2)n[nH]c(=O)c1C (stereo partly drawn) [Example 140, 6-[3-({4-[(1R,4S)-bicyclo[2.2.1]hept-2-yl]-3-methyl-5-oxopiperazin-1-yl}carbonyl)-4-fluorobenzyl]-4,5-dimethyl-3-oxo-2,3-dihydropyridazin-1-ium trifluoroacetate] | < 50 |
| 5 to 25 | Cc1c(Cc2ccc(F)c(C(=O)N3CCN(C4CCCOC4)C(=O)C3)c2)n[nH]c(=O)c1C(F)(F)F (stereo not shown) [Example 141, 3-(4-Fluoro-3-{[3-oxo-4-(tetrahydro-2H-pyran-3-yl)piperazin-1-yl]carbonyl}benzyl)-4-methyl-6-oxo-5-(trifluoromethyl)-1,6-dihydropyridazin-1-ium trifluoroacetate] | < 50 |
| < 5 | Cc1c(Cc2ccc(F)c(C(=O)N3CCN(C4CCOC4)C(=O)C3)c2)n[nH]c(=O)c1C(F)(F)F (stereo not shown) [Example 142, 3-(4-Fluoro-3-{[3-oxo-4-(tetrahydrofuran-3-yl)piperazin-1-yl]carbonyl}benzyl)-4-methyl-6-oxo-5-(trifluoromethyl)-1,6-dihydropyridazin-1-ium trifluoroacetate] | < 50 |
| < 5 | CCc1cc(Cc2ccc(F)c(C(=O)N3CCN([C@H]4CCCOC4)C(=O)C3)c2)n[nH]c1=O [Example 144, 4-ethyl-6-[4-fluoro-3-({3-oxo-4-[(3S)-tetrahydro-2H-pyran-3-yl]piperazin-1-yl}carbonyl)benzyl]pyridazin-3(2H)-one] | < 5000 |
| 5 to 25 | CCc1cc(Cc2ccc(F)c(C(=O)N3CCN([C@@H]4CCCOC4)C(=O)C3)c2)n[nH]c1=O [Example 145, 4-ethyl-6-[4-fluoro-3-({3-oxo-4-[(3R)-tetrahydro-2H-pyran-3-yl]piperazin-1-yl}carbonyl)benzyl]pyridazin-3(2H)-one] | 50 to 500 |
| 5 to 25 | Cc1c(Cc2ccc(F)c(C(=O)N3CCN(C4CCOCC4)C(=O)C3)c2)n[nH]c(=O)c1C(F)(F)F [Example 146, 3-(4-Fluoro-3-{[3-oxo-4-(tetrahydro-2H-pyran-4-yl)piperazin-1-yl]carbonyl}benzyl)-4-methyl-6-oxo-5-(trifluoromethyl)-1,6-dihydropyridazin-1-ium trifluoroacetate] | < 50 |
| 5 to 25 | CCN1C(=O)CN(C(=O)c2cc(Cc3n[nH]c(=O)c(C(F)(F)F)c3C)ccc2F)CC1C (stereo not shown) [Example 147, 3-{3-[(4-Ethyl-3-methyl-5-oxopiperazin-1-yl)carbonyl]-4-fluorobenzyl}-4-methyl-6-oxo-5-(trifluoromethyl)-1,6-dihydropyridazin-1-ium trifluoroacetate] | < 50 |
| < 5 | CCc1cc(Cc2ccc(F)c(C(=O)N3CCN(C4CCc5ccccc5C4)C(=O)C3)c2)n[nH]c1=O (stereo not shown) [Example 148, 4-Ethyl-6-(4-fluoro-3-{[3-oxo-4-(1,2,3,4-tetrahydronaphthalen-2-yl)piperazin-1-yl]carbonyl}benzyl)pyridazin-3(2H)-one] | 50 to 500 |
| < 5 | Cc1c(Cc2ccc(F)c(C(=O)N3CCN(C4CCC(F)C4)C(=O)C3)c2)n[nH]c(=O)c1C (stereo not shown) [Example 150, 6-(4-Fluoro-3-{[4-(3-fluorocyclopentyl)-3-oxopiperazin-1-yl]carbonyl}benzyl)-4,5-dimethylpyridazin-3(2H)-one] | 50 to 500 |
| 5 to 25 | C[C@@H]1CN(C(=O)c2cc(Cc3cc(C(F)(F)F)c(=O)[nH]n3)ccc2F)CC(=O)N1C1CCCC1 [Example 151, 6-(3-{[(3R)-4-cyclopentyl-3-methyl-5-oxopiperazin-1-yl]carbonyl}-4-fluorobenzyl)-4-(trifluoromethyl)pyridazin-3(2H)-one] | < 50 |
| 5 to 25 | C[C@H]1CN(C(=O)c2cc(Cc3cc(C(F)(F)F)c(=O)[nH]n3)ccc2F)CC(=O)N1C1CCCC1 [Example 152, 6-(3-{[(3S)-4-cyclopentyl-3-methyl-5-oxopiperazin-1-yl]carbonyl}-4-fluorobenzyl)-4-(trifluoromethyl)pyridazin-3(2H)-one] | < 5000 |
| 5 to 25 | COCCN1CCN(C(=O)c2cc(Cc3n[nH]c(=O)c(C)c3C)ccc2F)CC1=O [Example 170, 6-(4-Fluoro-3-{[4-(2-methoxyethyl)-3-oxopiperazin-1-yl]carbonyl}benzyl)-4,5-dimethylpyridazin-3(2H)-one] | < 5000 |
| < 5 | CCOCCN1CCN(C(=O)c2cc(Cc3n[nH]c(=O)c(C)c3C)ccc2F)CC1=O [Example 171, 6-(3-{[4-(2-Ethoxyethyl)-3-oxopiperazin-1-yl]carbonyl}-4-fluorobenzyl)-4,5-dimethylpyridazin-3(2H)-one] | < 5000 |
| 5 to 25 | Cc1c(Cc2ccc(F)c(C(=O)N3CCN(CCOC(C)C)C(=O)C3)c2)n[nH]c(=O)c1C [Example 172, 6-(4-Fluoro-3-{[4-(2-isopropoxyethyl)-3-oxopiperazin-1-yl]carbonyl}benzyl)-4,5-dimethylpyridazin-3(2H)-one] | < 5000 |
| 5 to 25 | Cc1c(Cc2ccc(F)c(C(=O)N3CC(=O)N(C4CCC4)[C@@H](C)C3)c2)n[nH]c(=O)c1C [Example 176, 6-(3-{[(3S)-4-Cyclobutyl-3-methyl-5-oxopiperazin-1-yl]carbonyl}-4-fluorobenzyl)-4,5-dimethylpyridazin-3(2H)-one] | < 5000 |
